US12466839B2, “Allosteric AKT inhibitors for use in the treatment of Hereditary Hemorrhagic Telangiectasia” (VADERIS THERAPEUTICS AG, priority 2020, dated 2025)
“Also recorded” adds a separate entry of the source.

Legend:
AKT2 = AKT2 (Homo sapiens, UniProt P31751); assay: Co-crystal structure in complex with AKT2; assay type: binding; conditions: 2.32 Å co-crystal structure with AKT2
[1] = Safety/toxicity profile in wild-type neonatal mice
Description: C57Bl/6J pregnant females were provided by Janvier Labs. EngFlox/flox mice (Mahmoud et al., (2010), “Pathogenesis of arteriovenous malformations in the absence of endoglin”, Circulation Research. https://doi.org/10.1161/[…].109.211037) were crossed with Cdh5(PAC)-CreERT2 (12) to generate endothelial specific inducible Eng knockout. Animal housing and procedures were in accordance with the Dutch Government guidelines and directive 2010/63/EU of the European Parliament. All efforts were made to minimize the number of animals used and their suffering. The institutional Committee for Animal Welfare of Leiden University Medical Center (project number AVD1160020171628) approved all protocols. Male and female mice were used during the first postnatal week to study retinal angiogenesis.
Retinas were processed for immunofluorescence staining as described (Lebrin et al., (2010), “Thalidomide stimulates vessel maturation and reduces epistaxis in individuals with hereditary hemorrhagic telangiectasia”, Nature Medicine. https://doi.org/10.1038/nm.2131).

[2] = tested on: angiogenesis in C57Bl/6J mice retinas; assay: Neonatal retinal angiogenesis model in wild-type mice; assay type: in vivo, mouse (C57Bl/6J); conditions: for anti-angiogenic properties (overall conclusion): mouse retinas
Description: (§1) For the retinal vascular network, quantification of the number of AV shunts per mouse was done manually. […] A custom own-lab made macro allowed automatic processing of the images, using the same processing and quantification parameters. Briefly, the brightness of the images was enhanced by modifying the pixel extreme values, which depends on the specific image histogram content. A Gaussian filter was applied to reduce the intensity in homogeneities. The filter order depended on the image resolution. Next, the threshold step was computed, based on a global threshold technique such as Otsu's method or Li's method, resulting in binary image. A median filter was then applied to eliminate potential local irregularities, which could cause false branching point detection. From the binary images, the vascular density was quantified (calculated as the ratio of pixels associated with the vessels divided by the total number of pixels in the image). For the other parameters, a skeleton of the images was first computed using ImageJ, then the total vascular length was quantified using the Measure Skeleton Length plug-in from ImageJ. The number of branch points was extracted from the Analyze Skeleton plug-in of ImageJ. All results were transferred to Microsoft Office Excel software and automatically rearranged using a lab custom-made program. As all images generated at each step of the processing were saved, a visual control was made to ensure that there were no aberrant results.
(§2) Statistical analysis was performed with Prism 7 software (GraphPad). For most of the experiments, 1-way ANOVA was used for multiple comparisons. Results are expressed as mean±SEM. For post hoc pairwise, the Dunnett's test was used. A value of *P<0.05, **P<0.01, ***P<0.001 or ****P<0.0001 denotes statistical significance. An in-group variation of around 15% in parameters related to blood vessel architecture changes has been previously observed by the inventors, therefore a difference between controls and mutant mice of around 20-30% was anticipated. It was therefore expected that a group of 8 mice per condition would reveal statistical differences.
(§3) Eyes were fixed in 4% paraformaldehyde (PFA) in PBS at room temperature for 10 min, retinas were dissected, post-fixed in 4% PFA in PBS at 4° C. overnight then processed for immunostaining. Retinas were permeabilized in PBS, 1% BSA and 0.5% Triton X-100 at 4° C. overnight, rinsed in PBS, washed twice in PBlec (PBS, pH 6.8, 1% Triton-X-100, 0.1 mM CaCl2, 0.1 mM MgCl2, 0.1 mM MnCl2), and then incubated in biotinylated Griffonia simplicifolia lectin (isolectin B4) (B-1205, Vector Laboratories, 1:50) in PBlec at 4° C. overnight. After 5 washes in PBS, samples were incubated with streptavidin Cy-3 (PA43001, Sigma-Aldrich, 1:100) and with a-SMA (clone 1A4) (F3777, Sigma-Aldrich) conjugated with FITC diluted in PBS, 0.5% BSA, and 0.25% X-100 at 4° C. for 2 h. After washing, flat whole-mount retinas were mounted in DAKO medium (S3023, Dako). Complete high-resolution 3-dimensional rendering of whole-mount retinas was acquired using Laser Scanning Microscope SP5 or SP8 (Leica).

[3] = tested on: AVM formation in Eng-iKO mice; assay: Prevention of AVM formation in Eng-iKO mice (retinal vascular network); assay type: in vivo, mouse
Procedure: The Eng Flox/flox; cdh5-CreERT2 were injected with tamoxifen (50 μg) at P2 to […] once at P3, P4, P5 and P6. The same volume of vehicle was injected serving as control animals. Mice were then euthanized at P7 and retinas processed for immunofluorescence staining as described (Lebrin et al., as above).
(§4) The same volume of vehicle was injected serving as control animals. Mice were then euthanized at P7 and retinas processed for immunofluorescence staining as described (Lebrin et al., as above).
as §1, §2, §3

[4] = Pup lethality / adverse effects in Eng-iKO mice; assay type: in vivo
Procedure: The Eng Flox/flox; cdh5-CreERT2 were injected with tamoxifen (50 μg) at P2 to induce nearly […] The same volume of vehicle was injected serving as control animals. Mice were then euthanized at P7 and retinas processed for immunofluorescence staining as described (Lebrin et al., as above).
as §4

[5] = tested on: AKT kinase in Pi3Kα or PTEN mutant cells lines (e.g. MCF7, BT474 or LnCAP); conditions: similar cell line; cited from earlier work
[6] = tested on: nosebleeds in HHT patients; conditions: HHT patients (Lebrin et al.); cited from earlier work
[7] = Pharmacokinetics (PK) profile in neonate mice; assay type: in vivo, mouse
Procedure: Terminal blood samples collected at 24 h and 48 h post injections were collected from each mouse under isoflurane anaesthesia for the preparation of plasma. 4 neonate mice were used per time point in the study. Blood was collected into EDTA coated microvettes (Sartsed) for plasma preparation. Blood was centrifuged at 2700×g for 10 minutes and approximately 30 to 40 μl plasma was removed and aliquoted into polypropylene tubes (two aliquots per animal). Plasma samples were stored at −80° C. until bioanalysis. VAD044 compound levels in plasma samples was determined by LC-MS/MS.

[8] = once at P4, 5 to 25 mg·kg-1, i.p

Sequence of AKT2 (P31751 whole entry): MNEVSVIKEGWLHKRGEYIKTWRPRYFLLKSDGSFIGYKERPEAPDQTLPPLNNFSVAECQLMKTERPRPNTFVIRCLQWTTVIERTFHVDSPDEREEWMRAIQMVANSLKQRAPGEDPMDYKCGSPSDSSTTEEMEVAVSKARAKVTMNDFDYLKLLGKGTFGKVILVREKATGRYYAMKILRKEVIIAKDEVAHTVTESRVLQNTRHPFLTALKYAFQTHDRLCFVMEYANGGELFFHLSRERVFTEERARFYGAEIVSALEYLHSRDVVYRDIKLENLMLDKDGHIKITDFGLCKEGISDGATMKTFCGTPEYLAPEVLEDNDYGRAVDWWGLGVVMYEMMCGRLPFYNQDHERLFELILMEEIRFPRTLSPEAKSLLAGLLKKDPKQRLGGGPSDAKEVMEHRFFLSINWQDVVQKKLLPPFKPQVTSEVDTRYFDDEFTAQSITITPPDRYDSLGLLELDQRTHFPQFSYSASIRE

With CCCN1C(=O)COc2nc(-c3ccc([C@]4(N)C[C@](C)(O)C4)cc3)c(-c3ccccc3)cc21 [Compound 6] the “binding site in co-crystal structure” value (AKT2) was “binds in an allosteric binding pocket”.

For CCCCCCCCCCCCCCCCCCOP(=O)([O-])OC1CC[N+](C)(C)CC1 [Perifosine], the weight gain ([1]; injected once at P4, 50 mg·kg-1) was “delayed weight gain”, the pup mortality ([1]; injected once at P4, 100 mg·kg-1) was “induced important pup mortality” and the adverse effects ([1]; injected once at P4, 5 to 25 mg·kg-1) was “No adverse effects”. The “anti-angiogenic properties (overall conclusion)” value [2] was “weak anti-angiogenic properties”, the vascular radial expansion ([2]; once at P4, 100 mg·kg-1) was “reduced vascular radial expansion” and the effect on angiogenesis ([2]; once at P4, 5 to 10 mg·kg-1) was “did not affect angiogenesis”. For the same compound, the “number of branch points and vascular area of the retinal vascular bed” value ([2]; once at P4, 25 to 100 mg·kg-1) was “slight reduction”, the “prevention of AVM formation” value ([3]; Eng-iKO mice, 25 or 50 mg·kg-1 i.p at P3 and P5, or 10 mg·kg-1 daily P3 to P6) was “unable to prevent AVM formation” and the “inhibition of angiogenesis in Eng-iKO mice” value ([3]; Eng-iKO mice, doses and injection schemes tested) was “did not inhibit angiogenesis”. For the same compound, the “effects in shunt formation” value ([3]; HHT1 mouse model, 25 and 50 mg·kg-1) was “no significant effects”, the “efficacy on shunt formation” value ([3]; injected every day at 10 mg·kg-1) was “trend for efficacy was observed but statistical significance was not achieved” and the pup death ([4]; daily intraperitoneal administration at 25 mg·kg-1) was “resulted in pup death”. The “cellular inhibitory activity on AKT” value [5] was “uM range”.

For O=C1CCC(N2C(=O)c3ccccc3C2=O)C(=O)N1 (centres unmarked) [Thalidomide], the “severity and frequency of nosebleeds” value [6] is given as “reduce the severity and frequency of nosebleeds”.

In the case of Cn1ncc(Cl)c1-c1cc(C(=O)N[C@H](CN)Cc2ccc(F)c(F)c2)oc1Cl [Uprosertib], the “anti-angiogenic properties (overall conclusion)” value [2] is reported as “potent inhibitor of angiogenesis; also recorded: potent antiangiogenic properties”, the “number of branch points” value [2, 8] is reported as “marked decrease” and the radial expansion [2, 8] is reported as “slight decrease”. The vascular area [2, 8] was “marked decrease”, the pups mortality ([4]; 5 mg·kg−1 injected twice at P3 and P6) was “high levels of pups mortality” and the pup death ([4]; Eng-iKO mice, 1 to 5 mg·kg−1 bodyweight) was “death of the majority of the pups”. For the same compound, the pup death ([4]; Eng-iKO mice, two injections at P3 and P5) was “death of the majority of the pups”.

Compound CCN1C(=O)COc2nc(-c3ccc([C@]4(N)C[C@@H](O)C4)cc3)c(-c3ccccc3)cc21 [VAD044 free base, 6-(4-(1-amino-3-hydroxycyclobutyl)phenyl)-1-ethyl-7-phenyl-1H-pyrido[2,3-b][1,4]oxazin-2(3H)-one] has a Cavg (effective concentration) [7] of 22.9 ng/mL.
